Data set [1] deals with Staphylococcus aureus FDA209P. In words: Minimum inhibitory concentration, Staphylococcus aureus FDA209P. It counts as cell-based. As to conditions: 0.5% peptone agar, 37° C., 17 hours. The protocol: (§1) *Minimum inhibitory concentrations were determined on a 0.5% peptone agar
(§2) by incubation at 37° C. for 17 hours.

Data set [2] concerns Staphylococcus aureus Smith. The data set is described as follows: Minimum inhibitory concentration, Staphylococcus aureus Smith. The settings on record: 0.5% peptone agar, 37° C., 17 hours. In kind it is cell-based. The protocol:
as §1, §2

For the next data set, the system named is Sarcina lutea PCI1001. In words: Minimum inhibitory concentration, Sarcina lutea PCI1001. In kind it is cell-based. The settings on record: Micrococcus luteus, 0.5% peptone agar, 37° C., 17 hours. The protocol: as §1, §2
The next data set deals with Micrococcus flavus FDA16. In words: Minimum inhibitory concentration, Micrococcus flavus FDA16. In kind it is cell-based. The settings on record: 0.5% peptone agar, 37° C., 17 hours. The protocol:
as §1, §2

Data set [3] concerns Bacillus subtilis NRRL B-558. In words: Minimum inhibitory concentration, Bacillus subtilis NRRL B-558. In kind it is cell-based. As to conditions: NRRLB558, 0.5% peptone agar, 37° C., 17 hours. The protocol:
as §1, §2

Data set [4] deals with Mycobacterium smegmatis ATC607. In words: Minimum inhibitory concentration, Mycobacterium smegmatis ATC607. In kind it is cell-based. As to conditions: Mycolicibacterium smegmatis, 0.5% peptone agar, 37° C., 17 hours. As to the method: as §1, §2
A further data set relates to Escherichia coli NIHJ. The data set is described as follows: Minimum inhibitory concentration, Escherichia coli NIHJ. In kind it is cell-based. The settings on record: 0.5% peptone agar, 37° C., 17 hours. As to the method: as §1, §2
The test system of the next data set is Escherichia coliK-12. In words: Minimum inhibitory concentration, Escherichia coli K-12. In kind it is cell-based. The settings on record: 0.5% peptone agar, 37° C., 17 hours. As to the method:
as §1, §2

In data set [5] the test system is Escherichia coli K-12 ML1629. In words: Minimum inhibitory concentration, Escherichia coli K-12 ML1629. In kind it is cell-based. As to conditions: K12ML1629, 0.5% peptone agar, 37° C., 17 hours. As to the method: as §1, §2
The next data set relates to Salmonella typhi T-63. In words: Minimum inhibitory concentration, Salmonella typhi T-63. In kind it is cell-based. The settings on record: Salmonella enterica, 17 h, read-out: Minimum Inhibitory Concentration. The protocol: as §1, §2
Another data set relates to Proteus vulgaris OX-19. In words: Minimum inhibitory concentration, Proteus vulgaris OX-19. In kind it is cell-based. The settings on record: OX19, 0.5% peptone agar, 37° C., 17 hours. The protocol: as §1, §2
The subject of the next data set is Proteus rettgeri GN311. The data set is described as follows: Minimum inhibitory concentration, Proteus rettgeri GN311. In kind it is cell-based. As to conditions: Providencia rettgeri, 0.5% peptone agar, 37° C., 17 hours. As to the method:
as §1, §2

In another data set the test system is Proteus rettgeri GN466. The data set is described as follows: Minimum inhibitory concentration, Proteus rettgeri GN466. It counts as cell-based. As to conditions: Providencia rettgeri, 0.5% peptone agar, 37° C., 17 hours. The protocol: as §1, §2
The next data set concerns Serratia marcescens. In words: Minimum inhibitory concentration, Serratia marcescens. It counts as cell-based. The settings on record: 0.5% peptone agar, 37° C., 17 hours. The protocol: as §1, §2
For data set [6], the system named is Klebsiella pneumoniae PCI602. The data set is described as follows: Minimum inhibitory concentration, Klebsiella pneumoniae PCI602. The settings on record: 0.5% peptone agar, 37° C., 17 hours. It counts as cell-based. The protocol:
as §1, §2

For another data set, the system named is Pseudomonas fluorescens. The data set is described as follows: Minimum inhibitory concentration, Pseudomonas fluorescens. It counts as cell-based. As to conditions: 0.5% peptone agar, 37° C., 17 hours. As to the method:
as §1, §2

Data set [7] deals with Pseudomonas aeruginosa A3. In words: Minimum inhibitory concentration, Pseudomonas aeruginosa A3. In kind it is cell-based. As to conditions: 0.5% peptone agar, 37° C., 17 hours. As to the method:
as §1, §2

The test system of data set [8] is Pseudomonas aeruginosa No. 12. In words: Minimum inhibitory concentration, Pseudomonas aeruginosa No. 12. It counts as cell-based. The settings on record: 0.5% peptone agar, 37° C., 17 hours. As to the method: as §1, §2
The nature of data set [9]: Stability in aqueous or 0.02N HCl aqueous solution. It counts as physicochemical. As to conditions: in words.
Data set [10] relates to Gram-positive and Gram-negative bacteria. In words: Antibacterial activity against Gram-positive and Gram-negative bacteria. It counts as cell-based. As to conditions: in words. The protocol: as §1, §2

The structures appear in SMILES notation. Converted amounts (≈) assume the structure as drawn.

As to `CN(CC(=O)O)NC(=O)C[C@H](N)CCCN` [Deoxynegamycin], the MIC was 25 µg/mL (≈ 108 µM) in data set [1]; 6.25 µg/mL (≈ 26.9 µM) in data set [2]; > 100 µg/mL against Sarcina lutea PCI1001; 50 µg/mL (≈ 215 µM) against Micrococcus flavus FDA16; 100 µg/mL (≈ 431 µM) in [3]; 50 µg/mL (≈ 215 µM) in data set [4]. In addition, the MIC with Escherichia coli NIHJ was 6.25 µg/mL (≈ 26.9 µM); in the data set on Escherichia coliK-12, 3.13 µg/mL (≈ 13.5 µM); in [5] it was 3.13 µg/mL (≈ 13.5 µM); with Salmonella typhi T-63, 0.78 µg/mL (≈ 3.36 µM); in the data set with Proteus vulgaris OX-19, 3.13 µg/mL (≈ 13.5 µM); in the data set on Proteus rettgeri GN311, 6.25 µg/mL (≈ 26.9 µM). For the same compound, the MIC against Proteus rettgeri GN466 turned out to be 3.13 µg/mL (≈ 13.5 µM); in the data set with Serratia marcescens, 25 µg/mL (≈ 108 µM); in data set [6] it was 6.25 µg/mL (≈ 26.9 µM); in the data set with Pseudomonas fluorescens, 3.13 µg/mL (≈ 13.5 µM); in [7], 25 µg/mL (≈ 108 µM); in [8] it was 50 µg/mL (≈ 215 µM). In addition, the “stability in aqueous solution (general statement)” value in data set [9] was “quite stable in aqueous solution”. In data set [10], the “inhibition of growth of Gram-positive and Gram-negative bacteria” value is “active against Gram-positive and Gram-negative bacteria”.

As for `CO[C@@H](CN)C[C@@H](N)CC(=O)NN(C)CC(=O)O` [O-Methylnegamycin], the MIC in data set [1] is 12.5 µg/mL (≈ 47.7 µM); in data set [2], 6.25 µg/mL (≈ 23.8 µM); in the data set with Sarcina lutea PCI1001, 25 µg/mL (≈ 95.3 µM); against Micrococcus flavus FDA16, 50 µg/mL (≈ 191 µM); in [3], 50 µg/mL (≈ 191 µM); in data set [4], 25 µg/mL (≈ 95.3 µM). The MIC in the data set with Escherichia coli NIHJ came to 6.25 µg/mL (≈ 23.8 µM); in the data set on Escherichia coliK-12, 3.13 µg/mL (≈ 11.9 µM); in [5], 1.56 µg/mL (≈ 5.95 µM); in the data set on Salmonella typhi T-63, 1.56 µg/mL (≈ 5.95 µM); in the data set on Proteus vulgaris OX-19 it was 1.56 µg/mL (≈ 5.95 µM); in the data set with Proteus rettgeri GN311 it was 6.25 µg/mL (≈ 23.8 µM). For the same compound, the MIC was found to be 3.13 µg/mL (≈ 11.9 µM) against Proteus rettgeri GN466; 25 µg/mL (≈ 95.3 µM) against Serratia marcescens; 6.25 µg/mL (≈ 23.8 µM) in [6]; 1.56 µg/mL (≈ 5.95 µM) against Pseudomonas fluorescens; 12.5 µg/mL (≈ 47.7 µM) in [7]; 25 µg/mL (≈ 95.3 µM) in data set [8]. In addition, in data set [9], the “stability in aqueous solution (general statement)” value is given as “quite stable in aqueous solution”. Moreover, the “inhibition of growth of Gram-positive and Gram-negative bacteria” value in data set [10] was “active against Gram-positive and Gram-negative bacteria”.

The values above are taken from patent US4065495A (Zaidan Hojin Biseibutsu Kagaku Kenkyu Kai, priority 1975, dated 1977).
